# According to patent publication US20190030114A1, “ISOFORM-SPECIFIC CALPAIN INHIBITORS, METHODS OF IDENTIFICATION, AND USES THEREOF” (WESTERN UNIVERSITY OF HEALTH SCIENCES, priority 2014, published 2019):
# Entries after “also recorded” stand apart in the source; their conditions may differ. Where two headings read alike, the source gives them in different places. Residues, ends and D or L forms follow the SMILES beside them. *: point of attachment. Cbz = O=C(OCc1ccccc1)*; CH2F = FC*
# What was measured:
# calpain-1 [1] = biological target: T1, calpain-1 (Homo sapiens, UniProt P07384); conditions: cited from earlier work
# T1 sequence (P07384 1-714): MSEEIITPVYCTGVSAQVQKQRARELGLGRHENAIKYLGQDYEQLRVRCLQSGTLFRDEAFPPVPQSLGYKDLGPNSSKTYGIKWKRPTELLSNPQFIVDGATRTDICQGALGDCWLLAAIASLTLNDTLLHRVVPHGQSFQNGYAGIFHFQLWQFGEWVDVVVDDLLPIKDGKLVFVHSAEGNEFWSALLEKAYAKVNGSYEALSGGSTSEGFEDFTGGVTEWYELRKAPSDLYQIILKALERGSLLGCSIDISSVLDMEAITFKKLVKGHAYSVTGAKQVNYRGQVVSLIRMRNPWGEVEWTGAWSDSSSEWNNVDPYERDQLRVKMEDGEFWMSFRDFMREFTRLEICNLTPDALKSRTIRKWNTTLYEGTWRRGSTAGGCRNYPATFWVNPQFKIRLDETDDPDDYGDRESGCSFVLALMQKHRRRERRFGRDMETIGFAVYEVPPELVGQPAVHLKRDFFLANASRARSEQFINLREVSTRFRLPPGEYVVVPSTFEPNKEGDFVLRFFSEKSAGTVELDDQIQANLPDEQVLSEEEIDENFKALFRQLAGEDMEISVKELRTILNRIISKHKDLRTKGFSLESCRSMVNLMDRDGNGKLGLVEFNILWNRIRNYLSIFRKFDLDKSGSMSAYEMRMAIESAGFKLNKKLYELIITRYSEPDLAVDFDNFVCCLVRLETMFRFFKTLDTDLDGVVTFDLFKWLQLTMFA
# T1 sequence (P04632 1-268 partner): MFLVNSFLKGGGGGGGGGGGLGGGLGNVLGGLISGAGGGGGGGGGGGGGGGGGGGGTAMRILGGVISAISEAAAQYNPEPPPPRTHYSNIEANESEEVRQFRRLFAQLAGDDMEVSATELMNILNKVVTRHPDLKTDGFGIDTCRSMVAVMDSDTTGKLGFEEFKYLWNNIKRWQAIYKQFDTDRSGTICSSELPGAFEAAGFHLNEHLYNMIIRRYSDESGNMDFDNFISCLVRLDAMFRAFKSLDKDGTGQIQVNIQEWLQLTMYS
# Akt and ERK = Akt and ERK phosphorylation in cultured cortical neurons, immunoblot; assay type: cell-based; conditions: for Akt and ERK phosphorylation (pAkt/Akt, pERK/ERK): peptide 1.5 μM, 30 min
# Source text: Pre-treatment with Calpain-2 C-terminal peptide had no effect on Akt and ERK levels. Columns represent means±S.E.M. n=3-6. *p<0.05. One-way ANOVA followed by Bonferroni test.
# calpain-1 [2] = biological target: T1, calpain-1; assay: in vitro calpain-1 inhibition, succinic-Leu-Tyr-AMC substrate; assay type: biochemical; conditions: n = 3-5; for Ki: Example 13, read-out: Ki Calpain-1
# Experimental: (§1) Formula 1, where chiral center 1 is the L-form and chiral center 2 is a racemic mixture of D- and L- in this example was introduced at various concentrations (from 1 nM to 10 μM) into an in vitro mix comprising succinic-Leu-Tyr-AMC and calpain-1 or calpain-2 (Sasaki et al, 1984), and the kinetics of the loss of fluorescence were determined for each of the calpains (Powers et al, 2000). […] Therefore, the assessment of selectivity described herein was different than the prior teaching.
# (§2) Formula 1A, where chiral center 1 is the S-form and chiral center 2 is the S-form was separated from the S-R-form (Formula 1B) using methods that are well-known methods for separating diastereoisomers. Formula 1A, which is also referred to herein as compound 18A, in this example was introduced at various concentrations into an in vitro mix comprising succinic-Leu-Tyr-AMC and μ-calpain or m-calpain (Sasaki et al, 1984), and the kinetics of the loss of fluorescence were determined for each of the calpains.
# calpain-2 [3] = biological target: T2, calpain-2 (Homo sapiens, UniProt P17655); assay: in vitro calpain-2 inhibition, succinic-Leu-Tyr-AMC substrate; assay type: biochemical; conditions: for Ki: Example 13, read-out: Ki Calpain-2; for Ki / IC50: n = 3-4
# T2 sequence (P17655 1-700): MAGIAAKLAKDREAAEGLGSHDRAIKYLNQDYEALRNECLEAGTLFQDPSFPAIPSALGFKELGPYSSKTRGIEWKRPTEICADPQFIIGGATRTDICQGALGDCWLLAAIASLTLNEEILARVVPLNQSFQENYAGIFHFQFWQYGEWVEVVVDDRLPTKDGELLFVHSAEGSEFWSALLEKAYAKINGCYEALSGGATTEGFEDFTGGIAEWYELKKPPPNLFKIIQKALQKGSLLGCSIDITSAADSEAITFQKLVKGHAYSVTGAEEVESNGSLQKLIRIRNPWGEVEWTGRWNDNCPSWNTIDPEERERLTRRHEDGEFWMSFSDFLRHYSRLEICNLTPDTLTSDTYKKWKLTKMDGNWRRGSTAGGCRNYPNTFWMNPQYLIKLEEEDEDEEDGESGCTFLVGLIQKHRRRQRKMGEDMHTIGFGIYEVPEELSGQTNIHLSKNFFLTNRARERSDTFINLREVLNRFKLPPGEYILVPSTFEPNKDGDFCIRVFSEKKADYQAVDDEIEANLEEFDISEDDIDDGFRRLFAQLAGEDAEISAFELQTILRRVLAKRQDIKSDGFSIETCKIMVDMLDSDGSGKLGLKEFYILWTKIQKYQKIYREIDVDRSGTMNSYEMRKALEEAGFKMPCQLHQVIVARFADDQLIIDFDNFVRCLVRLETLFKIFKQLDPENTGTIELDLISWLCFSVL
# T2 sequence (P04632 1-268 partner): T1 sequence (P04632 1-268 partner)
# Experimental: as §1, §2
# calpain-2 [4] = biological target: T2, calpain-2; conditions: cited from earlier work
# [5] = test system: stratum radiatum of field CA1 in acute rat hippocampal slices; assay: field EPSP recording, TBS-induced LTP in acute rat hippocampal slices; assay type: cell-based
# Experimental: Results are expressed as percent of the average values over a 10 min baseline period and are means±S.E.M. of the indicated number of experiments.
# FIG. 3A: Field recording of excitatory postsynaptic potentials (EPSPs) performed in stratum radiatum of field CA1 in acute rat hippocampal slices in the presence or absence of 200 nM of the calpain-2 selective inhibitor, Formula I, (mCalp-I in the drawing). Preincubation with mCalp-I enhances LTP. Results are expressed as percent of the average values over a 10 min baseline period and are means±S.E.M. of the indicated number of experiments.
# Results are expressed as percent of the average values over the 10 min baseline period and are means±S.E.M. of the indicated number of experiments.
# Generic calpain inhibitors block LTP when administered before LTP induction. Field recording of excitatory postsynaptic potentials (EPSPs; FIG. 2) was performed in stratum radiatum of field CA1 in acute rat hippocampal slices.
# A calpain 2-selective inhibitor enhances LTP. […]
# [6] = test system: cultured cortical neurons; assay: neuroprotection against starvation and oxidative stress (H2O2); assay type: cell-based; conditions: 1.5 μM
# Source text: Columns represent means±S.E.M. n=4. *p<0.05; **p<0.01; ***p<0.001. One-way ANOVA followed by Bonferroni test.
# [7] = test system: cultured cortical neurons; assay: Bic- and 4-AP-induced neuroprotection against starvation, Hoechst staining; assay type: cell-based; conditions: mCalp-I 200 nM
# Source text: Neuronal death was observed and quantified by Hoechst staining. 300-500 neurons were counted for each group in three to 6 independent experiments. *p<0.05; ns, no significant difference; one-way ANOVA followed by Bonferroni test. n=3-6. Error Bar indicates SEM
# Neuronal death was observed and quantified by Hoechst staining. 300-500 neurons were counted for each group in three to 6 independent experiments. *p<0.05; ns, no significant difference; one-way ANOVA followed by Bonferroni test. n=3-6. Error Bar indicates SEM (FIG. 6).
compound,measurement,setting,value
"CC(C)C[C@H](NC(=O)OCc1ccccc1)C(=O)N[C@@H](CC(C)C)C(=O)N[C@@H](Cc1ccc(O)cc1)C(=O)CF [Calpain inhibitor IV, carboxybenzyl-Leu-Leu-Tyr-CH2-F] (Cbz-Leu-Leu-Tyr-CH2F)",selectivity among calpains,"calpain-1 [1]; Powers et al, 2002, effect appears to vary with cell-type",some selectivity for calpain-1
"Calpain-2 C-terminal peptide: calpain-2 PDZ-binding domain specific peptide: TIQLDLISWLSFSVL, or fragment or modification thereof","Akt and ERK phosphorylation (pAkt/Akt, pERK/ERK)",Akt and ERK,no effect
CC[C@H](NC(=O)[C@H](CC(C)C)NC(=O)OCc1ccccc1)C(=O)C(=O)NCc1cc(OC)cc(OC)c1 [Formula 1A],Ki,calpain-1 [2],0.181 ± 0.073 µM
same,IC50,calpain-1 [2],0.379 µM
same,Ratio KiCalpain-1/KiCalpain-2,calpain-2 [3],23.2
same,Ki,calpain-2 [3],0.0078 ± 0.0025 µM
same,"difference in activity between the two diasteriomers, inhibition of calpain-2",calpain-2 [3]; Formula 1A versus S-R-form,2000 fold
same,IC50,calpain-2 [3],0.193 µM
"CCCNC(=O)C(=O)C(Cc1ccccc1)NC(=O)C(CC(C)C)NC(=O)OCc1ccccc1 (stereo not drawn) [Formula XII, z-Leu-Phe-CONH-nPr]",Ki,"calpain-1 [1]; Li et al, 1996, read-out: Ki for calpain-1 (μ-calpain), literature",0.05 µM
same,Ki,"calpain-1 [1]; U.S. Pat. No. 6,235,929, column 14, Table I, read-out: Ki for calpain-1",15 µM
same,Ki,"calpain-2 [4]; Li et al, 1996, read-out: Ki for calpain-2 (m-calpain), literature",0.35 µM
"Calpain-1 C-terminal peptide: calpain-1 PDZ-binding domain specific peptide: VTFDLFKWLQLTMFA, or fragment or modification thereof",LTP in rat hippocampal slices on un-scaffolding calpain-1,[5]; calpain-1 PDZ-peptide,greater LTP
same,"Akt and ERK phosphorylation (pAkt/Akt, pERK/ERK)",Akt and ERK,increased Akt and ERK phosphorylation
same,neuroprotection against H2O2 insult,[6],neuroprotection against H2O2 insult
same,neuroprotection against starvation,[6],neuroprotection against starvation
"CC(C)C(NC(=O)OCc1ccccc1)C(=O)NC(C=O)Cc1ccccc1 (stereo not drawn) [Calpain inhibitor III, Z-Val-Phe-CHO, reference compound] (Cbz-Val-Phe-aldehyde; configuration not given here)",LTP after theta-burst stimulation,[5]; 10 μM added prior to TBS,blocks LTP; also recorded: prevented the formation of LTP
same,short-term potentiation (increase in fEPSPs that follows TBS),[5]; 10 μM added prior to TBS,did not block short-term potentiation
same,blocked Bic- and 4-AP-induced neuroprotection against starvation,[7],blocked
same,effect of calpain-1 peptide on Akt and ERK,Akt and ERK; pre-treatment 10 μM,blocks the effect of calpain-1 peptide on Akt and ERK
same,Ki,"calpain-2 [4]; stated for generic inhibitor, source not given, read-out: Ki for calpain-2",~0.008 µM
CC[C@@H](NC(=O)[C@H](CC(C)C)NC(=O)OCc1ccccc1)C(=O)C(=O)NCc1cc(OC)cc(OC)c1 [Formula 1B],Ki,calpain-1 [2],514 ± 151 µM
same,IC50,calpain-1 [2],569 µM
same,Ratio KiCalpain-1/KiCalpain-2,calpain-2 [3],34
same,Ki,calpain-2 [3],15.6 ± 9.2 µM
same,IC50,calpain-2 [3],19.4 µM
